Results taken from ChEMBL document CHEMBL1157504, “Discovery and SAR of 2-(1-propylpiperidin-4-yl)-1H-benzimidazole-4-carboxamide: A potent inhibitor of poly(ADP-ribose) polymerase (PARP) for the treatment of cancer” (Bioorg Med Chem, 2008).
In brackets after ≈: the same amount, converted by molar mass. One block for each compound: values may come before it.

What was measured:
[1] = Oral bioavailability in CD1 mouse at 10 mg/kg; format: ADME, organism-based; settings: in vivo
[2] = Half life in CD1 mouse at 3 mg/kg, iv; format: ADME, organism-based; set-up: dose 3 mg/kg, route intravenous; settings: in vivo
[3] = molecular target: T1, Poly [ADP-ribose] polymerase 1 (Homo sapiens, UniProt P09874)
T1 sequence (P09874 whole entry): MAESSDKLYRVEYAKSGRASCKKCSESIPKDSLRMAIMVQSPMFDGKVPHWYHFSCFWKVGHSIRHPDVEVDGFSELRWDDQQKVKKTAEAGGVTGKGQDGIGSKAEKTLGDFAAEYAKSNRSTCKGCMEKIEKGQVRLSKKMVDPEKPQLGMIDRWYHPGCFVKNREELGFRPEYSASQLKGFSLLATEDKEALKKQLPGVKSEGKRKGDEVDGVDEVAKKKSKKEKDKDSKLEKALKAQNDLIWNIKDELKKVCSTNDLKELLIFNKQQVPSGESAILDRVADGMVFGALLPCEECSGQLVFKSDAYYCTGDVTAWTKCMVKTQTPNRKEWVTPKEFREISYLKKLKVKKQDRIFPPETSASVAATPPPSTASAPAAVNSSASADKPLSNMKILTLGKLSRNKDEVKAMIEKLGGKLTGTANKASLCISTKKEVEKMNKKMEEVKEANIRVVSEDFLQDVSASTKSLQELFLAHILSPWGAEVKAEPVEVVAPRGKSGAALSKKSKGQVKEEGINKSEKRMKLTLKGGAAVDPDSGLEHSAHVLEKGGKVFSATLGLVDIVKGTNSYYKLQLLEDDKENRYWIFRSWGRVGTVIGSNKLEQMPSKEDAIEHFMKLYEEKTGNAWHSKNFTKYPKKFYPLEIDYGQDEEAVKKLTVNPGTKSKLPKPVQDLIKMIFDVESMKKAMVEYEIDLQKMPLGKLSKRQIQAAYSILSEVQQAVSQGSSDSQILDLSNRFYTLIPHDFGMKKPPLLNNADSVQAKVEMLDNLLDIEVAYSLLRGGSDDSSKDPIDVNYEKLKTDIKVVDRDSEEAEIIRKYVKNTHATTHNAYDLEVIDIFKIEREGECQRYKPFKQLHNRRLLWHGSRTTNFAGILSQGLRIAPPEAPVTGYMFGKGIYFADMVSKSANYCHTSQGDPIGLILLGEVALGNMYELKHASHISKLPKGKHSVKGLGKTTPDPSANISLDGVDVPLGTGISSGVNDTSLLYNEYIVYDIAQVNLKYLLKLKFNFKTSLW

[4] = AUC in CD1 mouse at 10 mg/kg, po; format: ADME, organism-based; set-up: dose 10 mg/kg, route oral; settings: plasma
[5] = Cmax in CD1 mouse at 10 mg/kg, po; format: ADME, organism-based; set-up: dose 10 mg/kg, route oral; settings: in vivo
[6] = molecular target: T1, Poly [ADP-ribose] polymerase 1; remark: listed apart in the source
Description: Inhibition of PARP1 in human C41 cells

[7] = molecular target: Poly [ADP-ribose] polymerase 2 (Homo sapiens, UniProt Q9UGN5); assay: Inhibition of PARP2
Sequence of Poly [ADP-ribose] polymerase 2 (Q9UGN5 whole entry): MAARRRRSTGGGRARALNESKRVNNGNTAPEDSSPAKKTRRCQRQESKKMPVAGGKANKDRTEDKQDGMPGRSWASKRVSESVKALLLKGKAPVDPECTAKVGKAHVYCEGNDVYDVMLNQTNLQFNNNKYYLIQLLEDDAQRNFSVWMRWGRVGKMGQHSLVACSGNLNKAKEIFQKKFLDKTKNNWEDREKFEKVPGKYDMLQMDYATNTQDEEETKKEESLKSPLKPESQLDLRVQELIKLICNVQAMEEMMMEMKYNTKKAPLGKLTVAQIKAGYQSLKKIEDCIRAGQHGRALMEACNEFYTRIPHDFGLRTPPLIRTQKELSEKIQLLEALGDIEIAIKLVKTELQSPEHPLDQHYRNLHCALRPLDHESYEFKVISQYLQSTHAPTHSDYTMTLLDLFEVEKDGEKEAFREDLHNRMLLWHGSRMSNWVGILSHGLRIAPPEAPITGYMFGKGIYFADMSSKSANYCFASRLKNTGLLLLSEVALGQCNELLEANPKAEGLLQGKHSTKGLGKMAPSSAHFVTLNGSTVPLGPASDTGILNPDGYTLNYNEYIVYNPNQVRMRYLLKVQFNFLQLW

[8] = Half life in monkey at 4.1 mg/kg, iv; format: ADME, organism-based, Macaca mulatta; set-up: dose 4.1 mg/kg, route intravenous; settings: rhesus monkey, in vivo
[9] = AUC in monkey at 4.1 mg/kg, po; format: ADME, organism-based, Macaca mulatta; set-up: dose 4.1 mg/kg, route oral; settings: rhesus monkey, plasma
[10] = Volume of distribution at steady state in dog at 4.1 mg/kg; format: ADME, organism-based, Canis lupus familiaris; set-up: dose 4.1 mg/kg; settings: in vivo, read-out: Vdss
[11] = Half life in CD1 mouse at 3 mg/kg, iv; settings: in vivo
[12] = Clearance in CD1 mouse at 10 mg/kg; format: ADME, organism-based; set-up: dose 10 mg/kg; settings: in vivo
[13] = Oral bioavailability in monkey at 4.1 mg/kg; format: ADME, organism-based, Macaca mulatta; settings: rhesus monkey, in vivo
[14] = Volume of distribution at steady state in CD1 mouse at 10 mg/kg; format: ADME, organism-based; set-up: dose 10 mg/kg; settings: in vivo, read-out: Vdss
[15] = Clearance in rat at 4.1 mg/kg; format: ADME, organism-based; set-up: dose 4.1 mg/kg; settings: in vivo
[16] = Half life in rat at 4.1 mg/kg, iv; format: ADME, organism-based; set-up: dose 4.1 mg/kg, route intravenous; settings: in vivo
[17] = Solubility in water at pH 7.8; format: physicochemical
[18] = Half life in dog at 4.1 mg/kg, iv; format: ADME, organism-based, Canis lupus familiaris; set-up: dose 4.1 mg/kg, route intravenous; settings: in vivo
[19] = Protein binding in human plasma; format: ADME, cell-free; settings: read-out: PPB (converted)
[20] = Oral bioavailability in rat at 4.1 mg/kg; format: ADME, organism-based; settings: in vivo
[21] = Volume of distribution at steady state in monkey at 4.1 mg/kg; format: ADME, organism-based, Macaca mulatta; set-up: dose 4.1 mg/kg; settings: rhesus monkey, in vivo, read-out: Vdss
[22] = Clearance in monkey at 4.1 mg/kg; format: ADME, organism-based, Macaca mulatta; set-up: dose 4.1 mg/kg; settings: rhesus monkey, in vivo
[23] = Clearance in dog at 4.1 mg/kg; format: ADME, organism-based, Canis lupus familiaris; set-up: dose 4.1 mg/kg; settings: in vivo
[24] = AUC in rat at 4.1 mg/kg, po; format: ADME, organism-based; set-up: dose 4.1 mg/kg, route oral; settings: plasma
[25] = Volume of distribution at steady state in rat at 4.1 mg/kg; format: ADME, organism-based; set-up: dose 4.1 mg/kg; settings: in vivo, read-out: Vdss
[26] = AUC in dog at 4.1 mg/kg, po; format: ADME, organism-based, Canis lupus familiaris; set-up: dose 4.1 mg/kg, route oral; settings: plasma
[27] = Cmax in dog at 4.1 mg/kg, po; format: ADME, organism-based, Canis lupus familiaris; set-up: dose 4.1 mg/kg, route oral; settings: in vivo
[28] = Cmax in monkey at 4.1 mg/kg, po; format: ADME, organism-based, Macaca mulatta; set-up: dose 4.1 mg/kg, route oral; settings: rhesus monkey, in vivo
[29] = Oral bioavailability in dog at 4.1 mg/kg; format: ADME, organism-based, Canis lupus familiaris; settings: in vivo
[30] = Cmax in rat at 4.1 mg/kg, po; format: ADME, organism-based; set-up: dose 4.1 mg/kg, route oral; settings: in vivo

Structure (SMILES): CC(C)N1CCCC(c2nc3cccc(C(N)=O)c3[nH]2)C1 (centres undefined)
bioavailability [1]: 100%
half-life [2]: 0.4 h
Ki [3]: 22 nM
AUC [4]: 1200 ng·h/mL
Cmax [5]: 800 ng/mL
EC50 [6]: 12 nM

Structure (SMILES): CN(C)S(=O)(=O)N1CCC(c2nc3c(C(N)=O)cccc3[nH]2)CC1
Ki [3]: 28 nM
EC50 [6]: 170 nM

Structure (SMILES): CN1CCN(C)C(c2nc3cccc(C(N)=O)c3[nH]2)C1 (centres undefined)
Ki [3]: 35 nM
EC50 [6]: 97 nM

Structure (SMILES): CN1CCC(c2nc3cccc(C(N)=O)c3[nH]2)CC1
Ki [3]: 19 nM
EC50 [6]: 9 nM

Structure (SMILES): NC(=O)c1cccc2[nH]c(C3CCN(S(=O)(=O)c4ccccc4)CC3)nc12
Ki [3]: 27 nM
Ki [7]: 24 nM
EC50 [6]: > 1000 nM

Structure (SMILES): NC(=O)c1cccc2[nH]c(C3CNCCN3)nc12 (centres undefined)
Ki [3]: 26 nM
EC50 [6]: > 1000 nM

Structure (SMILES): CC(=O)N1CCC(c2nc3cccc(C(N)=O)c3[nH]2)CC1
Ki [3]: 59 nM

Structure (SMILES): CC(C)N1CCC(c2nc3c(C(N)=O)cc(Cl)cc3[nH]2)CC1
bioavailability [1]: 100%
half-life [2]: 1.4 h
Ki [3]: 18 nM
AUC [4]: 1700 ng·h/mL
Cmax [5]: 300 ng/mL
EC50 [6]: 9 nM

Structure (SMILES): NC(=O)c1cccc2nc([C@@H]3CCC(=O)N3)[nH]c12
Ki [7]: 3 nM

Structure (SMILES): NC(=O)c1cccc2[nH]c(C3CCN(C4CCCC4)CC3)nc12
Ki [3]: 6 nM
EC50 [6]: 5 nM

Structure (SMILES): NC(=O)c1cccc2[nH]c(C3CCN(CCc4ccccc4)C3)nc12 (centres undefined)
bioavailability [1]: 89%
half-life [2]: 0.8 h
AUC [4]: 1300 ng·h/mL
Cmax [5]: 700 ng/mL
EC50 [6]: 6 nM

Structure (SMILES): CCCN1CCC(c2nc3cccc(C(N)=O)c3[nH]2)CC1
bioavailability [1]: 63%
half-life [8]: 1.7 h
AUC [9]: 700 ng·h/mL
Vd [10]: 3.6 L/kg
half-life [11]: 1.2 h
clearance [12]: 88.3 mL/min/kg
bioavailability [13]: 32%
Vd [14]: 9.1 L/kg
half-life [2]: 1.2 h
clearance [15]: 48.3 mL/min/kg
half-life [16]: 2.6 h
solubility [17]: 6000 µg/mL (≈ 21 mM)
half-life [18]: 2.7 h
fraction unbound [19]: 0.43
bioavailability [20]: 48%
Vd [21]: 4.9 L/kg
clearance [22]: 33.3 mL/min/kg
clearance [23]: 15 mL/min/kg
Ki [3]: 8 nM
AUC [4]: 1200 ng·h/mL
AUC [24]: 700 ng·h/mL
Cmax [5]: 400 ng/mL
Vd [25]: 10.7 L/kg
AUC [26]: 3700 ng·h/mL
Cmax [27]: 1000 ng/mL
Ki [7]: 5 nM
Cmax [28]: 200 ng/mL
EC50 [6]: 3 nM
bioavailability [29]: 82%
Cmax [30]: 800 ng/mL

Structure (SMILES): CCCN1CCC(c2nc3c(C(N)=O)cccc3n2C)CC1
Ki [3]: 34 nM
EC50 [6]: 21 nM

Structure (SMILES): NC(=O)c1cccc2[nH]cnc12
Ki [3]: 240 nM

Structure (SMILES): COC1CCC(c2nc3cccc(C(N)=O)c3[nH]2)CC1 (centres undefined)
Ki [3]: 44 nM
EC50 [6]: 210 nM

Structure (SMILES): NC(=O)c1cccc2[nH]c(C3CCCNC3)nc12 (centres undefined)
bioavailability [1]: 26%
half-life [2]: 2 h
Ki [3]: 11 nM
AUC [4]: 1000 ng·h/mL
Cmax [5]: 200 ng/mL
EC50 [6]: 24 nM

Structure (SMILES): CC(C)N1CCCC(c2nc3cccc(C(N)=O)c3[nH]2)CC1 (centres undefined)
Ki [3]: 5 nM
EC50 [6]: 6 nM

Structure (SMILES): N#Cc1ccc(N2CCC(c3nc4c(C(N)=O)cccc4[nH]3)CC2)cc1
Ki [3]: 3 nM
EC50 [6]: 21 nM

Structure (SMILES): CCN(CC)CCN1CCC(c2nc3cccc(C(N)=O)c3[nH]2)CC1
Ki [3]: 31 nM
EC50 [6]: 94 nM

Structure (SMILES): CCCN1CC(c2nc3c(C(N)=O)cccc3[nH]2)C1
Ki [3]: 17 nM
EC50 [6]: 16 nM

Next, values leading:

Ki [3]: 5 nM
EC50 [6]: > 1000 nM
Structure (SMILES): NC(=O)c1cccc2[nH]c(C3CCNCC3)nc12

bioavailability [1]: 25%
half-life [2]: 0.1 h
AUC [4]: 40 ng·h/mL
Cmax [5]: 30 ng/mL
Structure (SMILES): CN1CCC[C@@H]1c1nc2c(C(N)=O)cccc2[nH]1

Ki [3]: 21 nM
EC50 [6]: 12 nM
Structure (SMILES): CC(C)N1CCC[C@@H]1c1nc2cccc(C(N)=O)c2[nH]1

Ki [3]: 29 nM
EC50 [6]: 30 nM
Structure (SMILES): CN1CCCCC1c1nc2c(C(N)=O)cccc2[nH]1 (centres undefined)

bioavailability [1]: 100%
half-life [2]: 1.2 h
AUC [4]: 3400 ng·h/mL
Cmax [5]: 1800 ng/mL
Structure (SMILES): NC(=O)c1cccc2[nH]c([C@H]3CCCN3)nc12

Ki [3]: 45 nM
EC50 [6]: 13 nM
Structure (SMILES): CC(C)N1CCCCC1c1nc2c(C(N)=O)cccc2[nH]1 (centres undefined)

Ki [7]: 11 nM
Structure (SMILES): NC(=O)c1cccc2[nH]c(C3CNC3)nc12

Ki [3]: 20 nM
EC50 [6]: 15 nM
Structure (SMILES): CC(C)N1CCC[C@H]1c1nc2c(C(N)=O)cccc2[nH]1

Ki [3]: 8 nM
EC50 [6]: 3 nM
Structure (SMILES): CCCN1CCC(c2nc3c(C(N)=O)cccc3[nH]2)C1 (centres undefined)

EC50 [6]: 200 nM
Structure (SMILES): NC(=O)c1cccc2[nH]c(C3CCN3)nc12 (centres undefined)

Ki [3]: 30 nM
EC50 [6]: 15 nM
Structure (SMILES): CN1CCCC(c2nc3c(C(N)=O)cccc3[nH]2)C1 (centres undefined)

Ki [3]: 110 nM
Structure (SMILES): CC(C)N1CCC1c1nc2c(C(N)=O)cccc2[nH]1 (centres undefined)

Ki [3]: 7 nM
Ki [7]: 2 nM
EC50 [6]: 4 nM
Structure (SMILES): CC(C)N1CCC(c2nc3c(C(N)=O)cccc3[nH]2)CC1
